Drawing on patent US20260070945A1, “MACROCYCLIC IMMUNOMODULATORS” (Bristol-Myers Squibb Company, priority 2022, published 2026), this text covers IC50 for twelve compounds.

A word on the IC50: it is the midpoint of a concentration-inhibition curve.

*1 amine or outer side, *2 acyl side, *3 side chain or, on linkers, in order; H or OH if unused. Where a SMILES comes first, the peptide text is derived from it. Bridges are numbered along the chain shown (N, C = ends). [ ]: non-standard residue; d: D form. The star is where a group is joined. X5 = O=C([C@H](Cc1ccc(-c2cc(F)c(F)c(F)c2)cc1)N[*:1])[*:2]; Phe(4-(4-F-Ph)) = N[C@@H](Cc1ccc(-c2ccc(F)cc2)cc1)C(=O)O; X13 = O=C([C@H](Cc1ccc(-c2cc(F)cc(F)c2)cc1)N[*:1])[*:2]; Phe(3-CF3) = N[C@@H](Cc1cccc(C(F)(F)F)c1)C(=O)O; Phe(4-COOH) = N[C@@H](Cc1ccc(C(=O)O)cc1)C(=O)O; Bip = N[C@@H](Cc1ccc(-c2ccccc2)cc1)C(=O)O; Phe(3-CN) = N#Cc1cccc(C[C@H](N)C(=O)O)c1; Phe(3-Cl) = N[C@@H](Cc1cccc(Cl)c1)C(=O)O; Phe(3-Me) = Cc1cccc(C[C@H](N)C(=O)O)c1; Cha = N[C@@H](CC1CCCCC1)C(=O)O; Cit = NC(=O)NCCC[C@H](N)C(=O)O; Carboxymethyl = O=C(O)C*; NMeA = CN[C@@H](C)C(=O)O; Aun = NCCCCCCCCCCC(=O)O; Dab = NCC[C@H](N)C(=O)O; AEEA = NCCOCCOCC(=O)O

In this test the target is T1, PD-1/PD-L1 interaction (PE-labeled human PD-L1-Ig binding to Jurkat cell line over-expressing human PD-1) (Homo sapiens, UniProt Q15116).
T1 construct: expressed in transfected cells; host or cells: Jurkat
T1 sequence (Q15116 25-288): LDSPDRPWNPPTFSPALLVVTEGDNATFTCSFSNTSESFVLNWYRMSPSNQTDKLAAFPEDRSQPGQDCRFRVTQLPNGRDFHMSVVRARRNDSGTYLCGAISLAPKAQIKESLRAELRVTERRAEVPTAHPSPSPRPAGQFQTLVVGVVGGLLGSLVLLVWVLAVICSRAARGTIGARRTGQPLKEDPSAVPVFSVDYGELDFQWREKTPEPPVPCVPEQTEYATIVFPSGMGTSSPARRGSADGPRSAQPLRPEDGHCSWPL
Description: Jurkat-PD-1 Cell Binding High-Content Screening Assay (CBA). Particulars: Jurkat-hPD-1 cells, PE-labeled PD-L1-Ig 20 nM final; read-out: Jurkat HPD1 PDL1 IC50. The gist of the method: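 High-content imaging read-out of PE-PD-L1-Ig binding (20 nM final, 1 h) to Jurkat-hPD-1 cells, after 2 h compound exposure at 37 °C in DMEM with 10% FCS. Nuclei counterstained with Hoechst 33342 after paraformaldehyde fixation.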
Take `Cc1cccc(C[C@@H]2NC(=O)[C@H](CC(=O)O)NC(=O)[C@H](Cc3ccc(OCC(=O)O)cc3)NC(=O)[C@H](CCCNC(=N)N)NC(=O)CSC[C@@H](C(=O)N[C@@H](CCCCN)C(=O)NCCCCCCCCCCC(=O)O)NC(=O)[C@H]([C@@H](C)O)NC(=O)[C@H](C(C)C)NC(=O)[C@H](CC3CCCCC3)NC(=O)[C@H](CCN)NC(=O)[C@@H](CC(C)C)NC(=O)[C@H](C)N(C)C(=O)[C@H](Cc3ccc(OCC(=O)O)cc3)NC(=O)[C@H](Cc3ccc(-c4ccccc4)cc3)NC(=O)[C@H](Cc3ccc(C(=O)O)cc3)NC2=O)c1` [Example 1225] ({CH2CO}-RY(Carboxymethyl)D[Phe(3-Me)][Phe(4-COOH)][Bip]Y(Carboxymethyl)[NMeA][dL][Dab][Cha]VTCK[Aun]-OH; thioether N-14): the IC50 is 48.7 nM. As to `Cc1cccc(C[C@@H]2NC(=O)[C@H](CC(=O)O)NC(=O)[C@H](Cc3ccc(OCC(=O)O)cc3)NC(=O)[C@H](CCCCN)NC(=O)CSC[C@@H](C(=O)N[C@@H](CCCCN)C(=O)NCCCCCCCCCCC(=O)O)NC(=O)[C@H]([C@@H](C)O)NC(=O)[C@H](C(C)C)NC(=O)[C@H](CC3CCCCC3)NC(=O)[C@H](CCN)NC(=O)[C@@H](CC(C)C)NC(=O)[C@H](C)N(C)C(=O)[C@H](Cc3ccc(OCC(=O)O)cc3)NC(=O)[C@H](Cc3ccc(-c4ccccc4)cc3)NC(=O)[C@H](Cc3ccc(C(=O)O)cc3)NC2=O)c1` [Example 1226] ({CH2CO}-KY(Carboxymethyl)D[Phe(3-Me)][Phe(4-COOH)][Bip]Y(Carboxymethyl)[NMeA][dL][Dab][Cha]VTCK[Aun]-OH; thioether N-14), the IC50 amounted to 80.6 nM. As for `Cc1cccc(C[C@@H]2NC(=O)[C@H](CC(=O)O)NC(=O)[C@H](Cc3ccc(OCC(=O)O)cc3)NC(=O)[C@H](CCCNC(=N)N)NC(=O)CSC[C@@H](C(=O)N[C@@H](CCCCN)C(=O)NCCCCCCCCCCC(=O)O)NC(=O)[C@H]([C@@H](C)O)NC(=O)[C@H](C(C)C)NC(=O)[C@H](CC3CCCCC3)NC(=O)[C@H](CCN)NC(=O)[C@@H](CC(C)C)NC(=O)[C@H](C)N(C)C(=O)[C@H](Cc3ccc(OCC(=O)O)cc3)NC(=O)[C@H](Cc3ccc(-c4ccccc4)cc3)NC(=O)[C@H](CCCNC(N)=O)NC2=O)c1` [Example 1227] ({CH2CO}-RY(Carboxymethyl)D[Phe(3-Me)][Cit][Bip]Y(Carboxymethyl)[NMeA][dL][Dab][Cha]VTCK[Aun]-OH; thioether N-14), the figure is 33.9 nM; as for `CC(C)C[C@H]1NC(=O)[C@H](C)N(C)C(=O)[C@H](Cc2ccc(OCC(=O)O)cc2)NC(=O)[C@H](Cc2ccc(-c3ccccc3)cc2)NC(=O)[C@H](Cc2ccc(OCC(=O)O)cc2)NC(=O)[C@H](Cc2cccc(C(F)(F)F)c2)NC(=O)[C@H](CC(=O)O)NC(=O)[C@H](Cc2ccc(OCC(=O)O)cc2)NC(=O)[C@H]([C@@H](C)O)NC(=O)CSC[C@@H](C(=O)N[C@@H](CCN)C(=O)NCCOCCOCC(=O)NCCCCCCCCCCC(=O)O)NC(=O)[C@H](CCC(=O)O)NC(=O)[C@H](C(C)C)NC(=O)[C@H](CC2CCCCC2)NC(=O)[C@H](CCN)NC1=O` [Example 1228] ({CH2CO}-TY(Carboxymethyl)D[Phe(3-CF3)]Y(Carboxymethyl)[Bip]Y(Carboxymethyl)[NMeA][dL][Dab][Cha]VEC[Dab][AEEA][Aun]-OH; thioether N-14), 16.9 nM. On to `CC(C)C[C@H]1NC(=O)[C@H](C)N(C)C(=O)[C@H](Cc2ccc(OCC(=O)O)cc2)NC(=O)[C@H](Cc2ccc(-c3ccccc3)cc2)NC(=O)[C@H](Cc2ccc(OCC(=O)O)cc2)NC(=O)[C@H](Cc2cccc(Cl)c2)NC(=O)[C@H](CC(=O)O)NC(=O)[C@H](Cc2ccc(OCC(=O)O)cc2)NC(=O)[C@H]([C@@H](C)O)NC(=O)CSC[C@@H](C(=O)N[C@@H](CCN)C(=O)NCCOCCOCC(=O)NCCCCCCCCCCC(=O)O)NC(=O)[C@H](CCC(=O)O)NC(=O)[C@H](C(C)C)NC(=O)[C@H](CC2CCCCC2)NC(=O)[C@H](CCN)NC1=O` [Example 1229] ({CH2CO}-TY(Carboxymethyl)D[Phe(3-Cl)]Y(Carboxymethyl)[Bip]Y(Carboxymethyl)[NMeA][dL][Dab][Cha]VEC[Dab][AEEA][Aun]-OH; thioether N-14), for which the IC50 is 15.2 nM. As to `CC(C)C[C@H]1NC(=O)[C@H](C)N(C)C(=O)[C@H](Cc2ccc(OCC(=O)O)cc2)NC(=O)[C@H](Cc2ccc(-c3ccccc3)cc2)NC(=O)[C@H](Cc2ccc(OCC(=O)O)cc2)NC(=O)[C@H](Cc2cccc(C#N)c2)NC(=O)[C@H](CC(=O)O)NC(=O)[C@H](Cc2ccc(OCC(=O)O)cc2)NC(=O)[C@H]([C@@H](C)O)NC(=O)CSC[C@@H](C(=O)N[C@@H](CCN)C(=O)NCCOCCOCC(=O)NCCCCCCCCCCC(=O)O)NC(=O)[C@H](CCC(=O)O)NC(=O)[C@H](C(C)C)NC(=O)[C@H](CC2CCCCC2)NC(=O)[C@H](CCN)NC1=O` [Example 1230] ({CH2CO}-TY(Carboxymethyl)D[Phe(3-CN)]Y(Carboxymethyl)[Bip]Y(Carboxymethyl)[NMeA][dL][Dab][Cha]VEC[Dab][AEEA][Aun]-OH; thioether N-14), the IC50 is 128 nM. As for `CC(C)C[C@H]1NC(=O)[C@H](C)N(C)C(=O)[C@H](Cc2ccc(OCC(=O)O)cc2)NC(=O)[C@H](Cc2ccc(-c3ccccc3)cc2)NC(=O)[C@H](Cc2ccc(C(=O)O)cc2)NC(=O)[C@H](Cc2cccc(C(F)(F)F)c2)NC(=O)[C@H](CC(=O)O)NC(=O)[C@H](Cc2ccc(OCC(=O)O)cc2)NC(=O)[C@H]([C@@H](C)O)NC(=O)CSC[C@@H](C(=O)N[C@@H](CCN)C(=O)NCCCCCCCCCCC(=O)O)NC(=O)[C@H]([C@@H](C)O)NC(=O)[C@H](C(C)C)NC(=O)[C@H](CC2CCCCC2)NC(=O)[C@H](CCN)NC1=O` [Example 1231] ({CH2CO}-TY(Carboxymethyl)D[Phe(3-CF3)][Phe(4-COOH)][Bip]Y(Carboxymethyl)[NMeA][dL][Dab][Cha]VTC[Dab][Aun]-OH; thioether N-14), the figure is 30.2 nM. As to `CC(C)C[C@H]1NC(=O)[C@H](C)N(C)C(=O)[C@H](Cc2ccc(OCC(=O)O)cc2)NC(=O)[C@H](Cc2ccc(-c3ccccc3)cc2)NC(=O)[C@H](Cc2ccc(C(=O)O)cc2)NC(=O)[C@H](Cc2cccc(Cl)c2)NC(=O)[C@H](CC(=O)O)NC(=O)[C@H](Cc2ccc(OCC(=O)O)cc2)NC(=O)[C@H]([C@@H](C)O)NC(=O)CSC[C@@H](C(=O)N[C@@H](CCN)C(=O)NCCCCCCCCCCC(=O)O)NC(=O)[C@H]([C@@H](C)O)NC(=O)[C@H](C(C)C)NC(=O)[C@H](CC2CCCCC2)NC(=O)[C@H](CCN)NC1=O` [Example 1232] ({CH2CO}-TY(Carboxymethyl)D[Phe(3-Cl)][Phe(4-COOH)][Bip]Y(Carboxymethyl)[NMeA][dL][Dab][Cha]VTC[Dab][Aun]-OH; thioether N-14), the IC50 is 34.1 nM. With `CC(C)C[C@H]1NC(=O)[C@H](C)N(C)C(=O)[C@H](Cc2ccc(OCC(=O)O)cc2)NC(=O)[C@H](Cc2ccc(-c3ccccc3)cc2)NC(=O)[C@H](Cc2ccc(C(=O)O)cc2)NC(=O)[C@H](Cc2cccc(C#N)c2)NC(=O)[C@H](CC(=O)O)NC(=O)[C@H](Cc2ccc(OCC(=O)O)cc2)NC(=O)[C@H]([C@@H](C)O)NC(=O)CSC[C@@H](C(=O)N[C@@H](CCN)C(=O)NCCCCCCCCCCC(=O)O)NC(=O)[C@H]([C@@H](C)O)NC(=O)[C@H](C(C)C)NC(=O)[C@H](CC2CCCCC2)NC(=O)[C@H](CCN)NC1=O` [Example 1233] ({CH2CO}-TY(Carboxymethyl)D[Phe(3-CN)][Phe(4-COOH)][Bip]Y(Carboxymethyl)[NMeA][dL][Dab][Cha]VTC[Dab][Aun]-OH; thioether N-14) the figure was 66.7 nM; with `Cc1cccc(C[C@@H]2NC(=O)[C@H](CC(=O)O)NC(=O)[C@H](Cc3ccc(OCC(=O)O)cc3)NC(=O)[C@H]([C@@H](C)O)NC(=O)CSC[C@@H](C(=O)N[C@@H](CCN)C(=O)NCCCCCCCCCCC(=O)O)NC(=O)[C@H]([C@@H](C)O)NC(=O)[C@H](C(C)C)NC(=O)[C@H](CC3CCCCC3)NC(=O)[C@H](CCN)NC(=O)[C@@H](CC(C)C)NC(=O)[C@H](C)N(C)C(=O)[C@H](Cc3ccc(OCC(=O)O)cc3)NC(=O)[C@H](Cc3ccc(-c4cc(F)cc(F)c4)cc3)NC(=O)[C@H](Cc3ccc(C(=O)O)cc3)NC2=O)c1` [Example 1234] ({CH2CO}-TY(Carboxymethyl)D[Phe(3-Me)][Phe(4-COOH)][X13]Y(Carboxymethyl)[NMeA][dL][Dab][Cha]VTC[Dab][Aun]-OH; thioether N-14), 31.6 nM.

Turning to `Cc1cccc(C[C@@H]2NC(=O)[C@H](CC(=O)O)NC(=O)[C@H](Cc3ccc(OCC(=O)O)cc3)NC(=O)[C@H]([C@@H](C)O)NC(=O)CSC[C@@H](C(=O)N[C@@H](CCN)C(=O)NCCCCCCCCCCC(=O)O)NC(=O)[C@H]([C@@H](C)O)NC(=O)[C@H](C(C)C)NC(=O)[C@H](CC3CCCCC3)NC(=O)[C@H](CCN)NC(=O)[C@@H](CC(C)C)NC(=O)[C@H](C)N(C)C(=O)[C@H](Cc3ccc(OCC(=O)O)cc3)NC(=O)[C@H](Cc3ccc(-c4ccc(F)cc4)cc3)NC(=O)[C@H](Cc3ccc(C(=O)O)cc3)NC2=O)c1` [Example 1235] ({CH2CO}-TY(Carboxymethyl)D[Phe(3-Me)][Phe(4-COOH)][Phe(4-(4-F-Ph))]Y(Carboxymethyl)[NMeA][dL][Dab][Cha]VTC[Dab][Aun]-OH; thioether N-14), the IC50 was 9.5 nM. With `Cc1cccc(C[C@@H]2NC(=O)[C@H](CC(=O)O)NC(=O)[C@H](Cc3ccc(OCC(=O)O)cc3)NC(=O)[C@H]([C@@H](C)O)NC(=O)CSC[C@@H](C(=O)N[C@@H](CCN)C(=O)NCCCCCCCCCCC(=O)O)NC(=O)[C@H]([C@@H](C)O)NC(=O)[C@H](C(C)C)NC(=O)[C@H](CC3CCCCC3)NC(=O)[C@H](CCN)NC(=O)[C@@H](CC(C)C)NC(=O)[C@H](C)N(C)C(=O)[C@H](Cc3ccc(OCC(=O)O)cc3)NC(=O)[C@H](Cc3ccc(-c4cc(F)c(F)c(F)c4)cc3)NC(=O)[C@H](Cc3ccc(C(=O)O)cc3)NC2=O)c1` [Example 1236] ({CH2CO}-TY(Carboxymethyl)D[Phe(3-Me)][Phe(4-COOH)][X5]Y(Carboxymethyl)[NMeA][dL][Dab][Cha]VTC[Dab][Aun]-OH; thioether N-14), the IC50 was 54.5 nM.
